Reference: Sander's compilation of Henry's law constants (doi:10.1021/ac00062a008)

experiment: Henry solubility constant Hcp at 298.15 K (mol/(m3 Pa)); details: reference: Zhang and Pawliszyn (1993)

SMILES | Henry solubility constant Hcp
c1ccccc1 [benzene] | 0.0015
CCc1ccccc1 [ethylbenzene] | 0.0025
Cc1ccccc1C [1,2-dimethylbenzene] | 0.0027
c1ccc2c(c1)ccc1ccccc12 [phenanthrene] | 0.25
c1ccc2ccccc2c1 [naphthalene] | 0.021
Cc1ccc(C)cc1 [1,4-dimethylbenzene] | 0.0017
c1ccc2cc3ccccc3cc2c1 [anthracene] | 0.11
c1ccc2c(c1)ccc1c3ccccc3ccc21 [chrysene] | 9.4
Cc1ccccc1 [methylbenzene] | 0.0015
c1cc2c3c(cccc3c1)CC2 [acenaphthene] | 0.11
